The values below come from US11447489B2, “Dihydropyrimidinylthiazole for the treatment and prophylaxis of hepatitis B virus infection” (priority 2017, dated 2022).

This experiment has as its system HBsAg. Briefly: HepG2.2.15 cells primary screen assay: HBsAg assay (CLIA of secreted HBsAg). The experiment is classed as cell-based, HBV. To be noted: Hepatitis B virus. The procedure:
Example 23: HepG2.2.15 Cells Primary Screen Assay
HepG2.2.15 cells (Acs et al. Proc Natl Acad Sci USA, 84, (1987), 4641-4), a constitutively HBV-expressing cell line were cultured in DMEM+Glutamax-I medium (Invitrogen, Carlsbad, Calif., USA), supplemented with 10% fetal bovine serum (Invitrogen) and G418 (Invitrogen) at a final concentration of 200 mg/L and maintained in 5% CO2 at 37° C.
HepG2.2.15 cells were seeded in duplicate into white, 96-well plates at 1.5×10^4 cells/well. The cells were treated with a three-fold serial dilution series of the compounds in DMSO. The final DMSO concentration in all wells was 1% and DMSO was used as no drug control.
The HBsAg chemiluminescence immunoassay (CLIA) kit (Autobio Diagnostics Co., Zhengzhou, China, Catalog number: CL0310-2) was used to measure the levels of secreted HBV antigens semi-quantitatively. For the detection 50 μL/well culture supernatant was used and HBsAg was quantified using HBsAg chemiluminescence immunoassay (CLIA) kit (Autobio Diagnostics Co., Zhengzhou, China, Catalog number: CL0310-2), 50 μL of the supernatant was transferred to the CLIA assay plate and 50 μL of enzyme conjugate reagent was added into each well. The plates were sealed and gently agitated for 1 hour at room temperature. The supernatant-enzyme-mixture was discarded and wells were washed 6 times with 300 μL of PBS. The residual liquid was removed by plating the CLIA plate […] on absorbent tissue paper. 25 μL of substrates A and B were added to each well. Luminance was measured using a luminometer (Mithras LB 940 Multimode Microplate Reader) after 10 minutes incubation. Dose-response curves were generated and the IC50 value was extrapolated by using the E-WorkBook Suite (ID Business Solutions Ltd., Guildford, UK). The IC50 was defined as the compound concentration (or conditioned media log dilution) at which HBsAg secretion was reduced by 50% compared to the no drug control.
The compounds of the present invention were tested for their capacity to inhibit HBsAg as described herein.
As to `COC(=O)C1=C(CN2CCOC[C@H]2C(=O)NCCOCCOCCOc2cc3c(cc2OC)-c2cc(=O)c(C(=O)O)cn2C(C(C)(C)C)C3)NC(c2nccs2)=N[C@H]1c1ccc(F)cc1Cl` (stereo partly drawn) [Example 10, 6-tert-butyl-9-[2-[2-[2-[[(3S)-4-[[(4R)-4-(2-chloro-4-fluoro-phenyl)-5-methoxycarbonyl-2-thiazol-2-yl-1,4-dihydropyrimidin-6-yl]methyl]morpholine-3-carbonyl]amino]ethoxy]ethoxy]ethoxy]-10-methoxy-2-oxo-6,7-dihydrobenzo[a]quinolizine-3-carboxylic Acid], the IC50 was 569 nM. To `COC(=O)C1=C(CN2CCOC[C@H]2C(=O)NCCCCCCOc2cc(N3CCc4nc(-c5ncccn5)ncc4C3C)cc(F)c2F)NC(c2nccs2)=N[C@H]1c1ccc(F)cc1Cl` (stereo partly drawn) [Example 18, methyl (4R)-4-(2-chloro-4-fluoro-phenyl)-6-[[(3S)-3-[6-[2,3-difluoro-5-(5-methyl-2-pyrimidin-2-yl-7,8-dihydro-5H-pyrido[4,3-d]pyrimidin-6-yl)phenoxy]hexylcarbamoyl]morpholin-4-yl]methyl]-2-thiazol-2-yl-1,4-dihydropyrimidine-5-carboxylate] belongs 912 nM. In turn, `COC(=O)C1=C(CN2CCN(CCCCCCOc3cc4c(cc3OC)-c3cc(=O)c(C(=O)O)cn3C(C(C)(C)C)C4)CC2)NC(c2nccs2)=N[C@H]1c1ccc(F)cc1Cl` (stereo partly drawn) [Example 1, 6-tert-butyl-9-[6-[4-[[(4R)-4-(2-chloro-4-fluoro-phenyl)-5-methoxycarbonyl-2-thiazol-2-yl-1,4-dihydropyrimidin-6-yl]methyl]piperazin-1-yl]hexoxy]-10-methoxy-2-oxo-6,7-dihydrobenzo[a]quinolizine-3-carboxylic Acid] yielded an IC50 of 41 nM. In the case of `COC(=O)C1=C(CN2CCN3C(=O)N(CCCCCCOc4cc5c(cc4OC)-c4cc(=O)c(C(=O)O)cn4C(C(C)(C)C)C5)CC3C2)NC(c2nccs2)=N[C@H]1c1ccc(F)cc1Cl` (stereo partly drawn) [Example 8, 6-tert-butyl-9-[6-[7-[[(4R)-4-(2-chloro-4-fluoro-phenyl)-5-methoxycarbonyl-2-thiazol-2-yl-1,4-dihydropyrimidin-6-yl]methyl]-3-oxo-5,6,8,8a-tetrahydro-1H-imidazo[1,5-a]pyrazin-2-yl]hexoxy]-10-methoxy-2-oxo-6,7-dihydrobenzo[a]quinolizine-3-carboxylic Acid] it was 48 nM. The compound `CCOC(=O)C1=C(COCCCCCCOc2cc3c(cc2OC)-c2cc(=O)c(C(=O)O)cn2C(C(C)(C)C)C3)NC(c2nccs2)=NC1c1ccc(F)cc1Cl` (stereo not shown) [Example 14, 6-tert-butyl-9-[6-[[4-(2-chloro-4-fluoro-phenyl)-5-ethoxycarbonyl-2-thiazol-2-yl-1,4-dihydropyrimidin-6-yl]methoxy]hexoxy]-10-methoxy-2-oxo-6,7-dihydrobenzo[a]quinolizine-3-carboxylic Acid] registered an IC50 of 96 nM. In the case of `CCOC(=O)C1=C(CN2CCN3C(=O)N(CC(C)(C)C(=O)NCCCCCCOc4cc5c(cc4OC)-c4cc(=O)c(C(=O)O)cn4C(C(C)(C)C)C5)C[C@@H]3C2)NC(c2nccs2)=N[C@H]1c1cccc(F)c1Cl` (stereo partly drawn) [Example 15, 9-[6-[[3-[(8aS)-7-[[(4R)-4-(2-chloro-3-fluoro-phenyl)-5-ethoxycarbonyl-2-thiazol-2-yl-1,4-dihydropyrimidin-6-yl]methyl]-3-oxo-5,6,8,8a-tetrahydro-1H-imidazo[1,5-a]pyrazin-2-yl]-2,2-dimethyl-propanoyl]amino]hexoxy]-6-tert-butyl-10-methoxy-2-oxo-6,7-dihydrobenzo[a]quinolizine-3-carboxylic Acid] it was 41 nM. To `COC(=O)C1=C(CN2CCN(c3cc(F)cc(N4CCc5nc(-c6ncccn6)ncc5C4C)n3)C(C(=O)O)C2)NC(c2nccs2)=N[C@H]1c1ccc(F)cc1Cl` (stereo partly drawn) [Example 22, 4-[[(4R)-4-(2-chloro-4-fluoro-phenyl)-5-methoxycarbonyl-2-thiazol-2-yl-1,4-dihydropyrimidin-6-yl]methyl]-1-[4-fluoro-6-[5-methyl-2-pyrimidin-2-yl-7,8-dihydro-5H-pyrido[4,3-d]pyrimidin-6-yl]-2-pyridyl]piperazine-2-carboxylic Acid] belongs 618 nM; to `COC(=O)C1=C(COc2cc(N3CCc4nc(-c5ncccn5)ncc4C3C)cc(F)c2F)NC(c2nccs2)=N[C@H]1c1ccc(F)cc1Cl` (stereo partly drawn) [Example 20, methyl (4R)-4-(2-chloro-4-fluoro-phenyl)-6-[[2,3-difluoro-5-(5-methyl-2-pyrimidin-2-yl-7,8-dihydro-5H-pyrido[4,3-d]pyrimidin-6-yl)phenoxy]methyl]-2-thiazol-2-yl-1,4-dihydropyrimidine-5-carboxylate], 824 nM. In turn, `COC(=O)C1=C(CN2CCN(CCCOc3cc4c(cc3OC)-c3cc(=O)c(C(=O)O)cn3C(C(C)(C)C)C4)CC2)NC(c2nccs2)=N[C@H]1c1ccc(F)cc1Cl` (stereo partly drawn) [Example 4, 6-tert-butyl-9-[3-[4-[[(4R)-4-(2-chloro-4-fluoro-phenyl)-5-methoxycarbonyl-2-thiazol-2-yl-1,4-dihydropyrimidin-6-yl]methyl]piperazin-1-yl]propoxy]-10-methoxy-2-oxo-6,7-dihydrobenzo[a]quinolizine-3-carboxylic Acid] displayed an IC50 of 182 nM. In the case of `COC(=O)C1=C(CN2CCN(CCCOc3cc4c(cc3OC)-c3cc(=O)c(C(=O)O)cn3C(C(C)(C)C)C4)C(C(=O)O)C2)NC(c2nccs2)=N[C@H]1c1ccc(F)cc1Cl` (stereo partly drawn) [Example 5, 6-tert-butyl-9-[3-[2-carboxy-4-[[(4R)-4-(2-chloro-4-fluoro-phenyl)-5-methoxycarbonyl-2-thiazol-2-yl-1,4-dihydropyrimidin-6-yl]methyl]piperazin-1-yl]propoxy]-10-methoxy-2-oxo-6,7-dihydrobenzo[a]quinolizine-3-carboxylic Acid] it was 3480 nM.

One may read the IC50 as the concentration that inhibits the measured activity by half. A higher IC50 goes with lower potency.
